Measured values: patent US10065941B2, “Aminotriazine derivative and pharmaceutical composition comprising the same” (Shionogi & Co., Ltd., priority 2013, dated 2018)

Target: human P2X3 receptor (Homo sapiens (Human), UniProt P56373)
Assay: Evaluation of human P2X3 receptor inhibitory activity (Test Example 1)
Format: cell-based
Settings: C6BU-1 cell transfected with human P2X3 receptor gene, FLIPR 384
Summary of the method: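 FLIPR calcium read-out: signal taken as peak fluorescence after ATP addition divided by starting fluorescence, and IC50 calculated from it. Compound added 5 min before 150 nM ATP solution (pre-dispense stock) to Fluo-3-AM-loaded C6BU-1 cells stably transfected with human P2X3; HEPES buffer pH 7.5 with probenecid.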

human P2X3 receptor, sequence (P56373 whole entry): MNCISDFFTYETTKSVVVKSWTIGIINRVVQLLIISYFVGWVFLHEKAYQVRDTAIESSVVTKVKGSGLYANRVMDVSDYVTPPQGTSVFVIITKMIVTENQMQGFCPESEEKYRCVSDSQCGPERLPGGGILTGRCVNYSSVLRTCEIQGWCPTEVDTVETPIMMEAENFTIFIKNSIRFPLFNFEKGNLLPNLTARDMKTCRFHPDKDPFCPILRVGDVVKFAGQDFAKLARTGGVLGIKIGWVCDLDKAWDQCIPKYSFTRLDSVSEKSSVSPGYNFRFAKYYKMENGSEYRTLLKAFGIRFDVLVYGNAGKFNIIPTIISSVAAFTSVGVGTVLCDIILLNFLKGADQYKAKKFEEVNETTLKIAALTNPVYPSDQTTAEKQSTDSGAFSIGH

Row | Structure (SMILES) | IC50
1 | CCOC(=O)C1(Cn2c(=O)[nH]/c(=N\c3ccc(Oc4ccccn4)cc3)n(Cc3ccc(Cl)cc3)c2=O)CC1 [Compound I-192] | 5 nM
2 | O=C(O)C1(Cn2c(=O)[nH]/c(=N\c3ccc(Oc4ccccn4)cc3)n(Cc3ccc(Cl)cc3)c2=O)CC1 [Compound I-193] | 8 nM
3 | COC(=O)[C@@H](C)Cn1c(=O)[nH]/c(=N\c2ccc(Oc3ccccn3)cc2)n(Cc2ccc(C(F)F)cc2)c1=O [Compound I-194] | 12 nM
4 | Cc1ccc(Cn2c(=O)n([C@@H](C)[C@@H](C)C(=O)O)c(=O)[nH]/c2=N\c2ccc(Oc3ccccn3)cc2)cc1 [Compound I-195] | 7 nM
5 | CO[C@H](Cn1c(=O)[nH]/c(=N\c2ccc(Oc3ccccn3)cc2)n(Cc2ccc(Cl)cc2)c1=O)C(=O)O [Compound I-200] | 42 nM
6 | C[C@@H](Cn1c(=O)[nH]/c(=N\c2ccc(Oc3ccccn3)cc2)n(Cc2ccc(C(F)F)cc2)c1=O)C(=O)O [Compound I-201] | 13 nM
7 | C[C@@H](Cn1c(=O)[nH]/c(=N\c2ccc(Oc3ccccn3)cc2)n(CC2CCC3(CC2)CC3)c1=O)C(=O)O [Compound I-202] | 8 nM
8 | COC(=O)[C@@H](Cn1c(=O)[nH]/c(=N\c2ccc(Oc3ccccn3)cc2)n(Cc2ccc(Cl)cc2)c1=O)OC [Compound I-203] | 3 nM
9 | COC(=O)[C@@H](C)Cn1c(=O)[nH]/c(=N\c2ccc(Oc3ccccn3)c(F)c2)n(Cc2ccc(C)cc2)c1=O [Compound I-204] | 4 nM
10 | COC(=O)[C@@H](C)Cn1c(=O)[nH]/c(=N\c2ccc(Oc3ccccn3)c(F)c2)n(Cc2ccc(Cl)cc2)c1=O [Compound I-205] | 12 nM
11 | COC(=O)[C@@H](C)Cn1c(=O)[nH]/c(=N\c2ccc(Oc3ccccn3)cc2)n(Cc2ccc(CF)cc2)c1=O [Compound I-206] | 10 nM
12 | COC(=O)[C@@H](C)Cn1c(=O)[nH]/c(=N\c2ccc(Oc3ncccc3F)cc2)n(Cc2ccc(CF)cc2)c1=O [Compound I-207] | 12 nM
13 | COC(=O)[C@@H](C)Cn1c(=O)[nH]/c(=N\c2ccc(Oc3ccc(F)cn3)cc2)n(Cc2ccc(CF)cc2)c1=O [Compound I-208] | 12 nM
14 | COC(=O)[C@@H](C)Cn1c(=O)[nH]/c(=N\c2ccc(Oc3cccc(F)n3)cc2)n(Cc2ccc(CF)cc2)c1=O [Compound I-209] | 8 nM
15 | Cc1ccc(Cn2c(=O)n(C[C@H](C)C(=O)O)c(=O)[nH]/c2=N\c2ccc(Oc3ccccn3)c(F)c2)cc1 [Compound I-210] | 7 nM
16 | C[C@@H](Cn1c(=O)[nH]/c(=N\c2ccc(Oc3ccccn3)c(F)c2)n(Cc2ccc(Cl)cc2)c1=O)C(=O)O [Compound I-211] | 7 nM
17 | Cc1cc(/N=c2\[nH]c(=O)n(C[C@H](C)C(=O)O)c(=O)n2Cc2ccc(Cl)cc2)ccc1Oc1ccccn1 [Compound I-212] | 10 nM
18 | Cc1ccc(Cn2c(=O)n(C[C@H](C)C(=O)O)c(=O)[nH]/c2=N\c2ccc(Oc3ccccn3)c(C)c2)cc1 [Compound I-213] | 12 nM
19 | C[C@@H](Cn1c(=O)[nH]/c(=N\c2ccc(Oc3ccccn3)cc2)n(Cc2ccc(CF)cc2)c1=O)C(=O)O [Compound I-214] | 11 nM
20 | C[C@@H](Cn1c(=O)[nH]/c(=N\c2ccc(Oc3ncccc3F)cc2)n(Cc2ccc(CF)cc2)c1=O)C(=O)O [Compound I-215] | 16 nM

Row | Structure (SMILES) | IC50
21 | C[C@@H](Cn1c(=O)[nH]/c(=N\c2ccc(Oc3ccc(F)cn3)cc2)n(Cc2ccc(CF)cc2)c1=O)C(=O)O [Compound I-216] | 17 nM
22 | C[C@@H](Cn1c(=O)[nH]/c(=N\c2ccc(Oc3cccc(F)n3)cc2)n(Cc2ccc(CF)cc2)c1=O)C(=O)O [Compound I-217] | 11 nM
23 | COc1cccc(Oc2ccc(/N=c3\[nH]c(=O)n(C[C@H](C)C(=O)O)c(=O)n3Cc3ccc(C)cc3)cc2)n1 [Compound I-218] | 10 nM
24 | Cc1cc(/N=c2\[nH]c(=O)n(CC(C)(C)C(=O)O)c(=O)n2Cc2ccc(Cl)cc2)ccc1Oc1ccccn1 [Compound I-219] | 12 nM
25 | Cc1cc(/N=c2\[nH]c(=O)n([C@@H](C)[C@@H](C)C(=O)O)c(=O)n2Cc2ccc(Cl)cc2)ccc1Oc1ccccn1 [Compound I-220] | 10 nM
26 | COC(=O)[C@@H](C)Cn1c(=O)[nH]/c(=N\c2ccc(Oc3cccc(OC)n3)cc2)n(Cc2ccc(C)cc2)c1=O [Compound I-221] | 11 nM
27 | COC(=O)[C@@H](C)Cn1c(=O)[nH]/c(=N\c2ccc(Oc3ccc(OC)cn3)cc2)n(Cc2ccc(C)cc2)c1=O [Compound I-222] | 4 nM
28 | COC(=O)[C@@H](C)Cn1c(=O)[nH]/c(=N\c2ccc(Oc3ccccn3)c(C)c2)n(Cc2ccc(Cl)cc2)c1=O [Compound I-223] | 11 nM
29 | COC(=O)[C@@H](C)Cn1c(=O)[nH]/c(=N\c2ccc(Oc3ccccn3)c(C)c2)n(Cc2ccc(C)cc2)c1=O [Compound I-224] | 6 nM
30 | COC(=O)C(C)(C)Cn1c(=O)[nH]/c(=N\c2ccc(Oc3ccccn3)c(C)c2)n(Cc2ccc(Cl)cc2)c1=O [Compound I-225] | 14 nM
31 | COC(=O)[C@H](C)[C@H](C)n1c(=O)[nH]/c(=N\c2ccc(Oc3ccccn3)c(C)c2)n(Cc2ccc(Cl)cc2)c1=O [Compound I-226] | 38 nM
32 | COC(=O)C(C)(C)Cn1c(=O)[nH]/c(=N\c2ccc(Oc3ccccn3)c(F)c2)n(Cc2ccc(Cl)cc2)c1=O [Compound I-227] | 31 nM
33 | COC(=O)[C@H](C)[C@H](C)n1c(=O)[nH]/c(=N\c2ccc(Oc3ccccn3)c(F)c2)n(Cc2ccc(Cl)cc2)c1=O [Compound I-228] | 21 nM
34 | COc1ccc(Oc2ccc(/N=c3\[nH]c(=O)n(C[C@H](C)C(=O)O)c(=O)n3Cc3ccc(C)cc3)cc2)nc1 [Compound I-229] | 6 nM
35 | CC(C)(Cn1c(=O)[nH]/c(=N\c2ccc(Oc3ccccn3)c(F)c2)n(Cc2ccc(Cl)cc2)c1=O)C(=O)O [Compound I-230] | 11 nM
36 | C[C@@H](C(=O)O)[C@H](C)n1c(=O)[nH]/c(=N\c2ccc(Oc3ccccn3)c(F)c2)n(Cc2ccc(Cl)cc2)c1=O [Compound I-231] | 7 nM
37 | C[C@@H](Cn1c(=O)[nH]/c(=N\c2ccc(Oc3ccc(CF)cn3)cc2)n(Cc2ccc(Cl)cc2)c1=O)C(=O)O [Compound I-232] | 5 nM
38 | C[C@@H](Cn1c(=O)[nH]/c(=N\c2ccc(Oc3ccc(CF)nc3)cc2)n(Cc2ccc(Cl)cc2)c1=O)C(=O)O [Compound I-233] | 6 nM
39 | C[C@@H](Cn1c(=O)[nH]/c(=N\c2ccc(Oc3cccc(F)n3)cc2)n(CC2CCC3(CC2)CC3)c1=O)C(=O)O [Compound I-234] | 7 nM
40 | C[C@@H](Cn1c(=O)[nH]/c(=N\c2ccc(Oc3ccc(F)cn3)cc2)n(CC2CCC3(CC2)CC3)c1=O)C(=O)O [Compound I-235] | 9 nM

Row | Structure (SMILES) | IC50
41 | COC(=O)[C@@H](C)Cn1c(=O)[nH]/c(=N\c2ccc(Oc3cccc(F)n3)cc2)n(CC2CCC3(CC2)CC3)c1=O [Compound I-236] | 16 nM
42 | COC(=O)[C@@H](C)Cn1c(=O)[nH]/c(=N\c2ccc(Oc3ccc(F)cn3)cc2)n(CC2CCC3(CC2)CC3)c1=O [Compound I-237] | 14 nM
43 | COC(=O)[C@@H](C)Cn1c(=O)[nH]/c(=N\c2ccc(Oc3ccc(CF)cn3)cc2)n(Cc2ccc(Cl)cc2)c1=O [Compound I-238] | 5 nM
44 | COC(=O)[C@@H](C)Cn1c(=O)[nH]/c(=N\c2ccc(Oc3ccc(CF)nc3)cc2)n(Cc2ccc(Cl)cc2)c1=O [Compound I-239] | 6 nM
45 | C[C@@H](Cn1c(=O)[nH]/c(=N\c2ccc(Oc3cc(CO)ccn3)cc2)n(Cc2ccc(Cl)cc2)c1=O)C(=O)O [Compound I-240] | 22 nM
46 | COCc1ccc(Oc2ccc(/N=c3\[nH]c(=O)n(C[C@H](C)C(=O)O)c(=O)n3Cc3ccc(Cl)cc3)cc2)nc1 [Compound I-241] | 8 nM
47 | Cc1ccc(Cn2c(=O)n(C[C@H](C)C(=O)O)c(=O)[nH]/c2=N\c2ccc(Oc3ccc(CF)cn3)cc2)cc1 [Compound I-242] | 8 nM
48 | C[C@@H](Cn1c(=O)[nH]/c(=N\c2ccc(Oc3ccccn3)c(Cl)c2)n(Cc2ccc(Cl)cc2)c1=O)C(=O)O [Compound I-243] | 7 nM
49 | C[C@@H](Cn1c(=O)[nH]/c(=N\c2ccc(Oc3ccccn3)c(F)c2)n(C[C@H]2CC[C@H](C)CC2)c1=O)C(=O)O [Compound I-244] | 8 nM
50 | COC(=O)[C@@H](C)Cn1c(=O)[nH]/c(=N\c2ccc(Oc3cccc(CO)n3)cc2)n(Cc2ccc(Cl)cc2)c1=O [Compound I-245] | 14 nM
51 | COC(=O)[C@@H](C)Cn1c(=O)[nH]/c(=N\c2ccc(Oc3cccc(CO)n3)cc2)n(Cc2ccc(C)cc2)c1=O [Compound I-246] | 14 nM
52 | COCc1ccc(Oc2ccc(/N=c3\[nH]c(=O)n(C[C@H](C)C(=O)OC)c(=O)n3Cc3ccc(Cl)cc3)cc2)nc1 [Compound I-247] | 6 nM
53 | COCc1cccc(Oc2ccc(/N=c3\[nH]c(=O)n(C[C@H](C)C(=O)OC)c(=O)n3Cc3ccc(Cl)cc3)cc2)n1 [Compound I-249] | 36 nM
54 | COCc1cccc(Oc2ccc(/N=c3\[nH]c(=O)n(C[C@H](C)C(=O)OC)c(=O)n3Cc3ccc(C)cc3)cc2)n1 [Compound I-250] | 31 nM
55 | CCc1ccc(Oc2ccc(/N=c3\[nH]c(=O)n(C[C@H](C)C(=O)OC)c(=O)n3Cc3ccc(Cl)cc3)cc2)nc1 [Compound I-251] | 8 nM
56 | COC(=O)[C@@H](C)Cn1c(=O)[nH]/c(=N\c2ccc(Oc3ccccn3)c(Cl)c2)n(Cc2ccc(Cl)cc2)c1=O [Compound I-252] | 14 nM
57 | COCc1ccc(Oc2ccc(/N=c3\[nH]c(=O)n(C[C@H](C)C(=O)O)c(=O)n3Cc3ccc(C)cc3)cc2)nc1 [Compound I-254] | 6 nM
58 | COCc1cccc(Oc2ccc(/N=c3\[nH]c(=O)n(C[C@H](C)C(=O)O)c(=O)n3Cc3ccc(Cl)cc3)cc2)n1 [Compound I-255] | 18 nM
59 | COCc1cccc(Oc2ccc(/N=c3\[nH]c(=O)n(C[C@H](C)C(=O)O)c(=O)n3Cc3ccc(C)cc3)cc2)n1 [Compound I-256] | 29 nM
60 | C[C@@H](Cn1c(=O)[nH]/c(=N\c2ccc(Oc3cccc(CO)n3)cc2)n(Cc2ccc(Cl)cc2)c1=O)C(=O)O [Compound I-257] | 16 nM
